Assay results taken from ChEMBL document CHEMBL1147764, “Leptostatin: a synthetic hybrid of the cytotoxic polyketides callystatin A and leptomycin B” (Bioorg Med Chem Lett, 2006).

Test system: HCT-116
Test: Cytotoxicity against HCT116 human colon cancer cell line
Type: functional, cell-based

| SMILES | IC50 [nM] |
| --- | --- |
| CCC(=C/[C@H](C)C/C=C/C(C)=C/[C@@H](C)C(=O)[C@@H](C)[C@H](O)[C@@H](C)CC)/C=C/[C@H]1OC(=O)C=C[C@H]1C | 0.2 |
| CCC(=C/[C@H](C)C/C=C/C(C)=C/[C@@H](C)C(=O)[C@@H](C)[C@H](O)[C@@H](C)CC)/C=C/[C@H]1OC(=O)C=C[C@@H]1C | 2 |
| CCC(=C/[C@H](C)C/C=C/C(C)=C/[C@@H](C)C(=O)[C@@H](C)[C@H](O)[C@@H](C)CC)/C=C/[C@@H]1OC(=O)C=C[C@@H]1C | 3 |
| CCC(=C/[C@H](C)C/C=C/C(C)=C/[C@@H](C)C(=O)[C@@H](C)[C@H](O)[C@@H](C)CC)/C=C/[C@@H]1OC(=O)C=C[C@H]1C | 30 |
| CCC(=C/[C@H](C)C/C=C/C(C)=C/[C@@H](C)C(=O)[C@@H](C)[C@H](O)[C@@H](C)CC)/C=C/[C@H]1CC=CC(=O)O1 [CALLYSTATIN A] | 0.03 |
